Assay results from ChEMBL document CHEMBL4673303, “Heterologous Expression of the Biosynthetic Gene Cluster for Verticilactam and Identification of Analogues” (J Nat Prod, 2020).
Active and inactive are the calls of the source. The rule behind the calls is not given here.

Legend:
HL-60 = test: Cytotoxicity against human HL-60 cells assessed as reduction in cell viability up to 70 uM after 48 hrs by WST-8 assay; format: functional, cell-based; conditions: dose microM <=70, time 48.0 hrs
Staphylococcus aureus = test: Antimicrobial activity against Staphylococcus aureus 209 assessed as reduction in microbial growth up to 70 uM after 24 hrs; format: functional, organism-based; conditions: dose microM <=70, time 24.0 hrs
Aspergillus fumigatus = test: Antimicrobial activity against Aspergillus fumigatus Af293 assessed as reduction in microbial growth up to 70 uM after 48 hrs; format: functional, organism-based; conditions: dose microM <=70, time 48.0 hrs
Candida albicans = test: Antimicrobial activity against Candida albicans JCM1542 assessed as reduction in microbial growth up to 70 uM after 48 hrs; format: functional, organism-based; conditions: dose microM <=70, time 48.0 hrs
Pyricularia oryzae = test: Antimicrobial activity against Pyricularia oryzae kita-1 assessed as reduction in microbial growth up to 70 uM after 48 hrs; format: functional, organism-based; conditions: dose microM <=70, time 48.0 hrs
HeLa = test: Cytotoxicity against human HeLa cells assessed as reduction in cell viability up to 70 uM after 48 hrs by WST-8 assay; format: functional, cell-based; conditions: dose microM <=70, time 48.0 hrs
Escherichia coli = test: Antimicrobial activity against Escherichia coli HO141 assessed as reduction in microbial growth up to 70 uM after 24 hrs; format: functional, organism-based; conditions: dose microM <=70, time 24.0 hrs
Plasmodium falciparum = test: Antimalarial activity against Plasmodium falciparum 3D7; format: functional, organism-based
NRK = test: Cytotoxicity against rat NRK cells infected with ts25 T-class mutant of Rous sarcoma virus Prague strain assessed as reduction in cell viability up to 70 uM after 48 hrs by WST-8 assay; format: functional, cell-based; conditions: dose microM <=70, time 48.0 hrs

## C\C1=C/C=C\C=C\[C@H](C)CNC(=O)CC(=O)C[C@@H]2O[C@H]3[C@@H]4[C@@H](C=C[C@H]1[C@H]42)[C@@H](O)C[C@H]3O
HL-60
  Activity: inactive
Staphylococcus aureus
  Activity: inactive
Aspergillus fumigatus
  Activity: inactive
Candida albicans
  Activity: inactive
Pyricularia oryzae
  Activity: inactive
HeLa
  Activity: inactive
Escherichia coli
  Activity: inactive
Plasmodium falciparum
  IC50: 12 µM
NRK
  Activity: inactive
